Measurements taken from paper PMC5107916, “Quantitative fluorescence spectroscopy and flow cytometry analyses of cell-penetrating peptides internalization pathways: optimization, pitfalls, comparison with mass spectrometry quantification” (Scientific Reports, 2016).
Read-outs that look alike come from different tables or passages of the source.

Columns and labels:
CHO cells [1] = experiment: Cytotoxicity, Cell Counting Kit 8 (CCK-8); type: cell-based, Chinese Hamster; conditions: 2 × 10^4 CHO cells/well, peptide 1; 5; 10 and 20 μM, 60 min, then 3 h 10% CCK-8, absorbance 450 nm
Description: Cytotoxicity was determined with the Cell Counting Kit 8 (CCK-8) from Dojindo Molecular Technologies. This colorimetric assay allows to measure the viability of cells. 96-well plates were inoculated with 100 μL/well of a suspension of CHO cells (2.10^4 cells/well). […] After washing, the cells were incubated with 100 μL of 10% CCK-8 in DMEM for 3 hours and the absorbance was measured at 450 nm with a microplate reader (Polarstar Optima). Controls corresponded to untreated cells (negative control, 100% viability) and cells treated with 0.2% of Triton X-100 (positive control, 0% viability). Supplementary Figure S1. […] A 96-well plate was inoculated with 100 µL/well of a suspension of CHO cells (2 × 10^4 cells/well). […] Controls corresponded to untreated cells (negative control, 100% viability) and cells treated with 0.2% of Triton X-100 (positive control, 0% viability).

[2] = tested on: Wild type Chinese Hamster Ovary CHO-K1 cells (WT); experiment: Fluorometry quantification of internalized CF-peptide in cell lysates; type: cell-based; conditions: for 4 °C - INTERNALIZED, WT (FLUOROMETRY) / 37 °C - INTERNALIZED, WT (FLUOROMETRY): fluorometry of lysate (50 mM Tris pH 7.4, 1 M NaCl, 1% NP40, sonicated), ex 494 nm, calibration curve, 10^6 cells, 7.5 μM peptide in DMEM, 60 min, mean ± spread, n in cell; for 4 °C - INTERNALIZED, WT (FLUOROMETRY): 4 °C (translocation only), 0.05% pronase digestion; for 37 °C - INTERNALIZED, WT (FLUOROMETRY): 0.05% trypsin/EDTA digestion, μM from 1 pL cell volume
Description: (§1) To quantify CPP internalization in cells, we kept the conditions of sample preparation for the measurement of the quantity of internalized and cell-associated (membrane-bound plus internalized) fluorescent peptides previously optimized for a MALDI-TOF MS based protocol, and illustrated in Fig. 3. Briefly, one million adherent cells were incubated with CF-CPP for the indicated time and temperature. […] Cells were then washed, lysed, sonicated and the lysate was cleared by centrifugation. The amount of internalized peptide was quantified by direct measurement of the fluorescence remaining in the supernatant. To evaluate the quantity of cell-associated (membrane-bound and internalized) peptide, the proteolytic step was omitted. A calibration curve was fitted from the fluorescence intensity of definite amounts of the same peptide in cell lysates ran in parallel for each experiment (Fig. 3). Comparison of the fluorescence intensity between the samples and the calibration curve permitted the absolute quantification of internalized and cell-associated peptides.
(§2) Figure 4 Quantification by fluorometry of (A) internalized and (B) membrane-bound CF-Penetratin in WT, GAG^deficient and SA^deficient CHO cells. One million cells were incubated with 2.5 or 7.5 μM CF-Penetratin in DMEM for 60 min at 37 °C or 4 °C. To measure the total cell-associated peptide (membrane-bound plus internalized), cells were washed and lysed in a buffer (50 mM Tris pH 7.4, 1 M NaCl, 1% Nonidet P40), sonicated and centrifuged 10 min at 16,000 g. To obtain the internalized peptide, the membrane-bound peptide was digested with 0.05% trypsin/EDTA (37 °C) or pronase (4 °C). After washes, cells were lysed, sonicated and centrifuged. To calculate the amount of internalized and membrane bound cell peptide, we compare the fluorescence intensity (excitation at 494 nm) to the calibration curve obtained from parallel experiments (see Fig. 3). Error bars correspond to standard errors obtained from n = 4 independent experiments for each experimental condition. Intracellular concentrations (μM) were calculated from the mean volume of one CHO cell (assimilated to a sphere of 10–15 μm diameter) being 1 pL: picomoles in 1 μL (10^6 cells) thus correspond to μM concentrations.
(§3) Wild type Chinese Hamster Ovary CHO-K1 cells (WT), xylose-transferase- or GAG-deficient CHO-pgsA745 cells (GAG^deficient) and sialic acid deficient CHO-lec2 cells (SA^deficient) (ATCC, LGC Standards S.a.r.l. - France) were cultured in F12 growth medium (DMEM-F12) supplemented with 10% fetal calf serum (FCS), penicillin (100,000 IU/L), streptomycin (100,000 IU/L), and amphotericin B (1 mg/L) in a humidified atmosphere containing 5% CO2 at 37 °C.
(§4) One million cells were incubated one hour at 37 °C or 4 °C with CF-Penetratin (2.5 μM and 7.5 μM), Biotin-(CF)Penetratin, CF-Arg9 and CF-TAT (7.5 μM) in 1 mL DMEM.
(§5) To access internalized peptides, after washing cells with HBSS, (0.05%) 500 μL trypsin/EDTA (37 °C, 5 min) or (0.05%) pronase (4 °C, 10 min) was added for 5 min to hydrolyze the remaining extracellular and the membrane-bound peptide and to detach cells. After addition of enzyme inhibitors (100 μL (one Complete Mini tablet, Roche, in 2.5 mL PBS) mixed with 100 μL bovine serum albumin (1 mg/mL), cells were transferred into a microtube, centrifuged, washed with 1 mL 50 mM Tris buffer pH 7.4, 0.1% BSA, and lysed in 200 μL 50 mM Tris pH 7.4, 1 M NaCl, 1% NP40. The samples were then sonicated for 30 min and centrifuged 10 min at 16,000 g.
(§6) To obtain the value of the total cell-associated peptide (internalized and membrane-bound species), after washing cells with HBSS, cells were directly lysed in 50 mM Tris pH 7.4, 1 M NaCl, 1% NP40. The samples were then sonicated for 30 min and centrifuged 10 min at 16,000 g.

[3] = tested on: sialic acid deficient CHO-lec2 cells (SA^deficient); conditions: fluorometry of lysate (50 mM Tris pH 7.4, 1 M NaCl, 1% NP40, sonicated), ex 494 nm, calibration curve, 10^6 cells, 7.5 μM peptide in DMEM, 60 min, mean ± spread, n in cell; for 37 °C - INTERNALIZED, SA^deficient (FLUOROMETRY): trypsin digestion; for 4 °C - INTERNALIZED, SA^deficient (FLUOROMETRY): pronase digestion
Description: as §1, §2, §3, §4, §5, §6

[4] = tested on: GAG-deficient CHO-pgsA745 cells (GAG^deficient); conditions: fluorometry of lysate (50 mM Tris pH 7.4, 1 M NaCl, 1% NP40, sonicated), ex 494 nm, calibration curve, 10^6 cells, 7.5 μM peptide in DMEM, 60 min, mean ± spread, n in cell; for 37 °C - INTERNALIZED, GAG^deficient (FLUOROMETRY): trypsin digestion; for 4 °C - INTERNALIZED, GAG^deficient (FLUOROMETRY): pronase digestion
Description: as §1, §2, §3, §4, §5, §6

[5] = tested on: Wild type Chinese Hamster Ovary CHO-K1 cells (WT); conditions: 7.5 μM extracellular peptide
Description: as §1, §3
(§7) The protocol has been fully described elsewhere by Burlina et al.[14][16]. Briefly, one million adherent cells were incubated one hour with biotin-labeled peptides (^1H-CPP). After washing with HBSS, 0.05% trypsin/EDTA (37 °C, 5 min) or 0.05% pronase (4 °C, 10 min) digestion, cells were lysed in a solution containing a relevant quantity of the deuterated form (^2H-CPP) of the same peptide sequence, which is used as internal standard to quantify the internalized amount of ^1H-CPP. MALDI-TOF MS analyses were done using cyano-4-hydroxy-cinnamic acid (CHCA), for Biotin-Penetratin or sinapinic acid for Biotin-(CF)Penetratin. Unless indicated, experiments were performed in triplicates and repeated at least three times independently.

[6] = tested on: GAG-deficient CHO-pgsA745 cells (GAG^deficient); conditions: MALDI-TOF MS (sinapinic acid matrix), 2H-peptide internal standard, 10^6 adherent cells, 7.5 μM extracellular peptide, 1 h, trypsin digestion
Description: as §1, §3, §7

[7] = tested on: Wild type Chinese Hamster Ovary CHO-K1 cells (WT); conditions: MALDI-TOF MS of lysate, 2H-peptide internal standard, 10^6 adherent cells, 7.5 μM extracellular peptide, 1 h, ref [19], cited from earlier work
[8] = tested on: GAG-deficient CHO-pgsA745 cells (GAG^deficient); conditions: MALDI-TOF MS of lysate, 2H-peptide internal standard, 10^6 adherent cells, 7.5 μM extracellular peptide, 1 h, ref [19], cited from earlier work
[9] = tested on: sialic acid deficient CHO-lec2 cells (SA^deficient); conditions: MALDI-TOF MS of lysate, 2H-peptide internal standard, 10^6 adherent cells, 7.5 μM extracellular peptide, 1 h, ref [19], cited from earlier work
CHO cells [10] = tested on: CHO cells
Description: We examined the impact of the concentration of Trypan Blue on cell-associated fluorescence compared to control conditions in the absence of Trypan Blue. Cells were incubated with CF-Penetratin. After washings, different concentrations of Trypan Blue were added before cytometry analysis. […] We next examined the quenching ability of Trypan Blue on increasing CF-Penetratin concentrations.
Figure 7 Quenching assays of membrane-bound fluorescence for flow cytometry internalization quantification. (A) Fluorescence quenching according to Trypan Blue quantity (% in g for 100 mL). […] After washing with cold PBS, cells were analyzed in the absence or the presence of Trypan Blue. Lower panel: Stern-Volmer plot. (B) Quenching of membrane fluorescence was assayed with various experimental conditions: 0.2% Trypan Blue, 0.01% trypsin (5 min, 37 °C), 0.5 mg/mL heparin (3 times 5 min, 37 °C). 20,000 events were recorded for each experimental condition. Data were normalized to 100% fluorescence in the absence of Trypan Blue.
Cells were dissociated with 0.5 mM EDTA in PBS (5 min at 37 °C), centrifuged at 800 g, and suspended in DMEM culture medium. […] To optimize fluorescence quenching of the membrane-bound fluorescein, the cell suspension was treated with different concentrations of Trypan Blue. […] 20,000 events were recorded for every experimental conditions.

[11] = 37 °C, trypsin digestion, μM from 1 pL cell volume

Biotin-GGGG(εCF)KRQIKIWFQNRRMKWKK-NH2 [Biotin-(CF)PEN]
cytotoxicity (cell viability, CCK-8) (CHO cells [1]): none of the peptides used in this study was cytotoxic | 4 °C - INTERNALIZED, WT (FLUOROMETRY) [2]: 1.5 ± 0.1 (n = 10) μM | 37 °C - INTERNALIZED, WT (FLUOROMETRY) [2]: 9.8 ±1.0 (n = 14) μM | 37 °C - INTERNALIZED, SA^deficient (FLUOROMETRY) [3]: 6.9 ± 1.8 (n = 3) μM | 37 °C - INTERNALIZED, GAG^deficient (FLUOROMETRY) [4]: 1.1 ± 0.1 (n = 4) μM | 4 °C - INTERNALIZED, WT (MALDI-TOF MS) ([5]; MALDI-TOF MS (sinapinic acid matrix), 2H-peptide internal standard, 10^6 adherent cells, 1 h, 4 °C, pronase digestion): Not detectable | 37 °C - INTERNALIZED, WT (MALDI-TOF MS) ([5]; MALDI-TOF MS (sinapinic acid matrix), 2H-peptide internal standard, 10^6 adherent cells, 1 h, 37 °C, trypsin digestion, μM from 1 pL cell volume, mean ± spread, n in cell): 8.7 ± 1.1 (n = 19) μM | intracellular degradation of the internalized peptide, from mass spectra ([5]; MALDI-TOF MS of cell lysate, one-hour incubation, 37 °C): not quickly degraded | 37 °C - INTERNALIZED, GAG^deficient (MALDI-TOF MS) [6]: Not detectable

Biotin-GGGGRQIKIWFQNRRMKWKK-NH2 [Biotin-PEN]
4 °C - INTERNALIZED, WT (MALDI-TOF MS) ([7]; 4 °C (translocation only), 0.05% pronase digestion): 0.9 ± 0.2 µM | 37 °C - INTERNALIZED, WT (MALDI-TOF MS) ([7]; 37 °C, membrane-bound peptide digested with 0.05% trypsin/EDTA, μM from 1 pL cell volume): 5.0 ± 0.5 µM | 4 °C - INTERNALIZED, GAG^deficient (MALDI-TOF MS) ([8]; 4 °C, pronase digestion): 0.6 ± 0.1 µM | 37 °C - INTERNALIZED, GAG^deficient (MALDI-TOF MS) [8, 11]: 1.9 ± 0.2 µM | 4 °C - INTERNALIZED, SA^deficient (MALDI-TOF MS) ([9]; 4 °C, pronase digestion): 1.0 ± 0.2 µM | 37 °C - INTERNALIZED, SA^deficient (MALDI-TOF MS) [9, 11]: 6.0 ± 1.0 µM

Carboxyfluorescein-Apa-RQIKIWFQNRRMKWKK-NH2 [CF-PEN]
4 °C - INTERNALIZED, WT (FLUOROMETRY) [2]: 2.4 ± 0.4 (n = 3) μM | 4 °C - INTERNALIZED, WT (FLUOROMETRY) ([2]; listed as CF-Penetratin): 1 to 2 µM | 37 °C - INTERNALIZED, WT (FLUOROMETRY) [2]: 22 ± 1.3 (n = 11) μM | ratio of total cell-associated to internalized peptide by fluorometry ([2]; fluorometry of lysates, cell line not given): ~100 folds | 4 °C - INTERNALIZED, SA^deficient (FLUOROMETRY) [3]: 1.0 ± 0.1 (n = 4) μM | 4 °C - INTERNALIZED, SA^deficient (FLUOROMETRY) ([3]; listed as CF-Penetratin): 1 to 2 µM | 37 °C - INTERNALIZED, SA^deficient (FLUOROMETRY) [3]: 33 ± 5.3 (n = 4) μM | 4 °C - INTERNALIZED, GAG^deficient (FLUOROMETRY) [4]: 1.7 ± 0.8 (n = 3) μM | 4 °C - INTERNALIZED, GAG^deficient (FLUOROMETRY) ([4]; listed as CF-Penetratin): 1 to 2 µM | 37 °C - INTERNALIZED, GAG^deficient (FLUOROMETRY) [4]: 7.0 ± 0.5 (n = 4) μM | difference between total cell-associated and internalized fluorescence signals by flow cytometry (CHO cells [10]): 1.25 to 2 folds
